The values that follow come from ChEMBL document CHEMBL3045835, “Comparative study of conventional and microwave-assisted synthesis of some Schiff bases and their potential as antimicrobial agents” (2012).

What all share (type): functional
Assay [1] has as its system Penicillium chrysogenum. The assay is described as follows: Antifungal activity against Penicillium chrysogenum MTCC 161 at 100 ug/ml after 18 hr by cup-plate method. The conditions noted are these: MTCC 161, 18 h, read-out: DIZ.
The test system of assay [2] is Aspergillus niger. The assay is described as follows: Antifungal activity against Aspergillus niger MTCC 2546 at 100 ug/ml after 18 hr by cup-plate method. The conditions noted are these: MTCC 2546, 18 h, read-out: DIZ.
For assay [3], the system named is Micrococcus luteus. The assay is described as follows: Antibacterial activity against Micrococcus luteus MTCC 1538 at 200 ug/ml after 18 hr by cup-plate method. The conditions noted are these: MTCC 1538, 18 h, read-out: DIZ.
For assay [4], the system named is Penicillium chrysogenum. The assay is described as follows: Antifungal activity against Penicillium chrysogenum MTCC 161 at 1000 ug/ml after 18 hr by cup-plate method. The conditions noted are these: MTCC 161, 18 h, read-out: DIZ.
Assay [5] deals with Pseudomonas fluorescens. The assay is described as follows: Antibacterial activity against Pseudomonas fluorescens MTCC 2421 at 500 ug/ml after 18 hr by cup-plate method. Conditions: MTCC 2421, 18 h, read-out: DIZ.
For assay [6], the system named is Staphylococcus aureus. As to the kind of experiment: Antibacterial activity against Staphylococcus aureus MTCC 1430 at 200 ug/ml after 18 hr by cup-plate method. Conditions: MTCC 1430, 18 h, read-out: DIZ.
Assay [7] has as its system Micrococcus luteus. As to the kind of experiment: Antibacterial activity against Micrococcus luteus MTCC 1538 after 24 hr by broth dilution method. Conditions: MTCC 1538, 24 h. A general note: Dilution methods test growth across graded concentrations, often in twofold steps.
Assay [8] relates to Micrococcus luteus. As to the kind of experiment: Antibacterial activity against Micrococcus luteus MTCC 1538 at 1500 ug/ml after 18 hr by cup-plate method. The conditions noted are these: MTCC 1538, 18 h, read-out: DIZ.
The test system of assay [9] is Micrococcus luteus. As to the kind of experiment: Antibacterial activity against Micrococcus luteus MTCC 1538 at 500 ug/ml after 18 hr by cup-plate method. The conditions noted are these: MTCC 1538, 18 h, read-out: DIZ.
Assay [10] has as its system Escherichia coli. As to the kind of experiment: Antibacterial activity against Escherichia coli MTCC 1573 at 1500 ug/ml after 18 hr by cup-plate method. The conditions noted are these: MTCC 1573, 18 h, read-out: DIZ.
In assay [11] the test system is Aspergillus niger. The assay is described as follows: Antifungal activity against Aspergillus niger MTCC 2546 at 1000 ug/ml after 18 hr by cup-plate method. The conditions noted are these: MTCC 2546, 18 h, read-out: DIZ.
Assay [12] concerns Pseudomonas fluorescens. As to the kind of experiment: Antibacterial activity against Pseudomonas fluorescens MTCC 2421 at 1500 ug/ml after 18 hr by cup-plate method. The conditions noted are these: MTCC 2421, 18 h, read-out: DIZ.
Assay [13] concerns Aspergillus niger. As to the kind of experiment: Antifungal activity against Aspergillus niger MTCC 2546 at 1500 ug/ml after 18 hr by cup-plate method. The conditions noted are these: MTCC 2546, 18 h, read-out: DIZ.
The subject of assay [14] is Pseudomonas fluorescens. As to the kind of experiment: Antibacterial activity against Pseudomonas fluorescens MTCC 2421 at 200 ug/ml after 18 hr by cup-plate method. The conditions noted are these: MTCC 2421, 18 h, read-out: DIZ.
The subject of assay [15] is Penicillium chrysogenum. The assay is described as follows: Antifungal activity against Penicillium chrysogenum MTCC 161 at 1500 ug/ml after 18 hr by cup-plate method. The conditions noted are these: MTCC 161, 18 h, read-out: DIZ.
The subject of assay [16] is Escherichia coli. The assay is described as follows: Antibacterial activity against Escherichia coli MTCC 1573 after 24 hr by broth dilution method. Conditions: MTCC 1573, 24 h.
Assay [17] has as its system Bacillus pumilus. The assay is described as follows: Antibacterial activity against Bacillus pumilus MTCC 1456 after 24 hr by broth dilution method. Conditions: MTCC 1456, 24 h.
The test system of assay [18] is Penicillium chrysogenum. As to the kind of experiment: Antifungal activity against Penicillium chrysogenum MTCC 161 after 24 hr by broth dilution method. The conditions noted are these: MTCC 161, 24 h.
In assay [19] the test system is Pseudomonas fluorescens. The assay is described as follows: Antibacterial activity against Pseudomonas fluorescens MTCC 2421 after 24 hr by broth dilution method. The conditions noted are these: MTCC 2421, 24 h.
Assay [20] deals with Escherichia coli. The assay is described as follows: Antibacterial activity against Escherichia coli MTCC 1573 at 1000 ug/ml after 18 hr by cup-plate method. Conditions: MTCC 1573, 18 h, read-out: DIZ.
For assay [21], the system named is Micrococcus luteus. As to the kind of experiment: Antibacterial activity against Micrococcus luteus MTCC 1538 at 1000 ug/ml after 18 hr by cup-plate method. Conditions: MTCC 1538, 18 h, read-out: DIZ.
Assay [22] concerns Micrococcus luteus. The assay is described as follows: Antibacterial activity against Micrococcus luteus MTCC 1538 at 100 ug/ml after 18 hr by cup-plate method. Conditions: MTCC 1538, 18 h, read-out: DIZ.
Assay [23] has as its system Pseudomonas aeruginosa. The assay is described as follows: Antibacterial activity against Pseudomonas aeruginosa MTCC 424 after 24 hr by broth dilution method. The conditions noted are these: MTCC 424, 24 h.
Assay [24] has as its system Aspergillus niger. The assay is described as follows: Antifungal activity against Aspergillus niger MTCC 2546 after 24 hr by broth dilution method. Conditions: MTCC 2546, 24 h.
For assay [25], the system named is Pseudomonas aeruginosa. The assay is described as follows: Antibacterial activity against Pseudomonas aeruginosa MTCC 424 at 1000 ug/ml after 18 hr by cup-plate method. Conditions: MTCC 424, 18 h, read-out: DIZ.
Assay [26] has as its system Bacillus pumilus. As to the kind of experiment: Antibacterial activity against Bacillus pumilus MTCC 1456 at 1000 ug/ml after 18 hr by cup-plate method. Conditions: MTCC 1456, 18 h, read-out: DIZ.
Assay [27] deals with Staphylococcus aureus. The assay is described as follows: Antibacterial activity against Staphylococcus aureus MTCC 1430 at 1500 ug/ml after 18 hr by cup-plate method. Conditions: MTCC 1430, 18 h, read-out: DIZ.
The test system of assay [28] is Pseudomonas aeruginosa. As to the kind of experiment: Antibacterial activity against Pseudomonas aeruginosa MTCC 424 at 1500 ug/ml after 18 hr by cup-plate method. Conditions: MTCC 424, 18 h, read-out: DIZ.
Assay [29] relates to Staphylococcus aureus. The assay is described as follows: Antibacterial activity against Staphylococcus aureus MTCC 1430 at 1000 ug/ml after 18 hr by cup-plate method. The conditions noted are these: MTCC 1430, 18 h, read-out: DIZ.
For assay [30], the system named is Aspergillus niger. The assay is described as follows: Antifungal activity against Aspergillus niger MTCC 2546 at 500 ug/ml after 18 hr by cup-plate method. Conditions: MTCC 2546, 18 h, read-out: DIZ.
Assay [31] concerns Pseudomonas fluorescens. The assay is described as follows: Antibacterial activity against Pseudomonas fluorescens MTCC 2421 at 1000 ug/ml after 18 hr by cup-plate method. Conditions: MTCC 2421, 18 h, read-out: DIZ.
In assay [32] the test system is Pseudomonas fluorescens. As to the kind of experiment: Antibacterial activity against Pseudomonas fluorescens MTCC 2421 at 100 ug/ml after 18 hr by cup-plate method. Conditions: MTCC 2421, 18 h, read-out: DIZ.
Assay [33] relates to Bacillus subtilis. As to the kind of experiment: Antibacterial activity against Bacillus subtilis MTCC 441 at 1500 ug/ml after 18 hr by cup plate method. Conditions: MTCC 441, 18 h, read-out: DIZ.
The subject of assay [34] is Bacillus subtilis. As to the kind of experiment: Antibacterial activity against Bacillus subtilis MTCC 441 after 24 hr by broth dilution method. Conditions: MTCC 441, 24 h.
Assay [35] deals with Bacillus subtilis. As to the kind of experiment: Antibacterial activity against Bacillus subtilis MTCC 441 at 1000 ug/ml after 18 hr by cup plate method. The conditions noted are these: MTCC 441, 18 h, read-out: DIZ.
Assay [36] has as its system Penicillium chrysogenum. The assay is described as follows: Antifungal activity against Penicillium chrysogenum MTCC 161 at 500 ug/ml after 18 hr by cup-plate method. The conditions noted are these: MTCC 161, 18 h, read-out: DIZ.
The test system of assay [37] is Staphylococcus aureus. The assay is described as follows: Antibacterial activity against Staphylococcus aureus MTCC 1430 at 100 ug/ml after 18 hr by cup-plate method. The conditions noted are these: MTCC 1430, 18 h, read-out: DIZ.
The subject of assay [38] is Staphylococcus aureus. As to the kind of experiment: Antibacterial activity against Staphylococcus aureus MTCC 1430 after 24 hr by broth dilution method. Conditions: MTCC 1430, 24 h.
The subject of assay [39] is Staphylococcus aureus. The assay is described as follows: Antibacterial activity against Staphylococcus aureus MTCC 1430 at 500 ug/ml after 18 hr by cup-plate method. The conditions noted are these: MTCC 1430, 18 h, read-out: DIZ.
Assay [40] concerns Bacillus pumilus. As to the kind of experiment: Antibacterial activity against Bacillus pumilus MTCC 1456 at 1500 ug/ml after 18 hr by cup-plate method. Conditions: MTCC 1456, 18 h, read-out: DIZ.

SMILES strings stand for the structures. In brackets after ≈: the same amount, converted by molar mass.

For the molecule `OC(Cn1cncn1)(Cn1cncn1)c1ccc(F)cc1F` [FLUCONAZOLE], the values for the zone of inhibition at 100 µg/mL in [1] and in [2] were 16 mm and 28 mm, respectively.

What is called MIC is the lowest concentration found to suppress growth. High values mean a less susceptible organism, low ones a more susceptible organism. As to `Clc1ccc(/N=C\c2cccc3ccccc23)cc1`, the results for the zone of inhibition at 200 µg/mL in assay [3], in assay [6] and in [14] were 16 mm, 13 mm and 12 mm, respectively. The zone of inhibition at 1000 µg/mL in assay [4] is 13 mm; in assay [11], 13 mm; in [20], 11 mm; in [21], 21 mm; in [25], 13 mm; in assay [26], 9 mm. In addition, the zone of inhibition at 1000 µg/mL in assay [29] turned out to be 18 mm; in assay [31], 17 mm; in [35] it was 15 mm. Besides, the zone of inhibition at 500 µg/mL in assay [5] came out at 14 mm; in assay [9], 19 mm; in assay [30], 11 mm; in [36], 11 mm; in assay [39] it was 15 mm. The MIC stood at 300 µg/mL (≈ 1130 µM) in assay [7]; 500 µg/mL (≈ 1880 µM) in assay [16]; 500 µg/mL (≈ 1880 µM) in [17]; 500 µg/mL (≈ 1880 µM) in assay [18]; 300 µg/mL (≈ 1130 µM) in [19]; 500 µg/mL (≈ 1880 µM) in assay [23]. Moreover, the MIC is 500 µg/mL (≈ 1880 µM) in [24], 500 µg/mL (≈ 1880 µM) in [34] and 400 µg/mL (≈ 1510 µM) in assay [38]. Further, the zone of inhibition at 1500 µg/mL in assay [8] came out at 25 mm; in assay [10] it was 17 mm; in assay [12], 19 mm; in assay [13] it was 15 mm; in assay [15], 14 mm; in assay [27] it was 21 mm. Also, the zone of inhibition at 1500 µg/mL in [28] is 14 mm; in [33], 17 mm; in assay [40], 10 mm. In addition, the zone of inhibition at 100 µg/mL was determined as 13 mm in assay [22], 11 mm in [32] and 11 mm in assay [37].
